According to patent publication US5843481A, “Treatment of proliferative disorders, metastasaes, and drug resistant tumors with vanadate compounds and derivatives or analogues thereof” (priority 1994, dated 1998):
Entries after “also recorded” stand apart in the source; their conditions may differ.

Key:
[1] = test system: KB8, KB8-5 and KB85-11 cells; settings: background statement; cited from earlier work
carcinogenesis = settings: reported by G. Shklar et al.; cited from earlier work
jun = test: Northern blot analysis of jun mRNA expression in chondrocytes; type: cell-based, bovine; settings: for expression of c-jun: stimulation, 1 hour, bovine chondrocytes, AA 3 μM; for jun expression in response to factors such as IL 1 or arachidonic acid: summary statement
Description: (§1) The cytokine interleukin 1 (IL 1) has been used to identify the intermediate second messengers which regulate the expression of fos and jun.
(§2) Although IL 1 stimulated superoxide production, it was not known whether IL 1 induced fos and jun expression was dependent on the production of superoxides. In order to elucidate this possibility, the effect of DPI on fos and jun mRNA levels induced by IL 1 was investigated. RNA from chondrocytes treated with IL 1 in the presence and absence of DPI were analyzed by Northern blot analysis using either fos or collagenase cDNA probes. […] Similar data has been obtained for IL 1 induced jun expression. Furthermore, inhibition of fos and jun expression by DPI was sufficient to suppress IL 1 induced and constitutive collagenase expression.
(§3) Bovine articular chondrocytes were isolated and plated as previously described (Kandel R. A. et al. Biochim. Biophys. Acta. 1053, 130-134, 1990). In order to determine the effect of orthovanadate on IL 1 and PMA (phorbol ester) induced responses, chondrocytes were incubated with orthovanadate (100 μM) for 2 hours before stimulation with IL 1 (10 ng/ml) or PMA ([…]). collagenase production was determined by incubating chondrocytes for 24 hours with IL 1 or PMA and the cell conditioned medium was assayed for collagenase activity using an ELISA procedure as described previously (Kandel et al. supra) PLA2 activity was measured by incorporating ^3 H-arachidonic acid (^3 H-AA) into the cells and then incubating the cells with medium containing 1 mg/ml BSA, either alone or in the presence of IL 1 or PMA, for 10 min. as previously described (Conquer, J. A. […], Biochim. Biophys. Acta. 1134, 1-6). The amount of ^3 H-AA liberated into the supernatant was determined. To measure PGE2 production, chondrocytes were incubated for 6 hours in Ham's F12 medium, either alone or with IL 1 or PMA. The supernatant was analyzed by RIA using an antibody specific for PGE2 (Dr. S. A. Jones, Mount Sinai Hospital, Toronto, Can.). In order to examine the expression of c-fos and c-jun, chondrocytes were incubated for 1 hour in the presence of IL-1, PMA or AA (3 μM). Chondrocytes were washed in PBS and the total RNA extracted as previously described (Cruz. et al, 1991, Biochem. J. 277, 327-330). RNA samples were run on formaldehyde agarose gels and transferred to nylon membrane for northern analysis using cDNA probes for c-fos and c-jun.

PGE2 = PGE2 production by chondrocytes (RIA); type: cell-based, bovine; settings: stimulation, 6 hours, monolayer culture
Procedure: as §3, with “Chondrocytes were washed in PBS and the total RNA extracted as previously described (Cruz. et al, 1991, Biochem. J. 277, 327-330). RNA samples were run on formaldehyde agarose gels and transferred to nylon membrane for northern analysis using cDNA probes for c-fos and c-jun.” left out

collagenase [2] = test: Collagenase production by chondrocytes (ELISA of conditioned medium); type: cell-based, bovine; settings: stimulation, 24 hours, monolayer culture
Procedure: as §3, with “Chondrocytes were washed in PBS and the total RNA extracted as previously described (Cruz. et al, 1991, Biochem. J. 277, 327-330). RNA samples were run on formaldehyde agarose gels and transferred to nylon membrane for northern analysis using cDNA probes for c-fos and c-jun.” left out

fos = test: Northern blot analysis of fos mRNA expression in chondrocytes; type: cell-based, bovine; settings: for expression of c-fos: stimulation, 1 hour, bovine chondrocytes, AA 3 μM; for fos expression in response to factors such as IL 1 or arachidonic acid: summary statement
Procedure: as §1
In order to elucidate this possibility, the effect of DPI on fos and jun mRNA levels induced by IL 1 was investigated. RNA from chondrocytes treated with IL 1 in the presence and absence of DPI were analyzed by Northern blot analysis using either fos or collagenase cDNA probes.
Since superoxides are rapidly converted to hydrogen peroxide in the cell by superoxide dismutase, whether hydrogen peroxide could mimic the effect of IL 1 in the induction of fos expression was investigated. RNA was extracted from chondrocytes (Kandel et al. supra) treated with H2 O2 for 30, 60 and 90 minutes and examined by Northern blot analysis using a fos cDNA probe.
as §3
Cells were also incubated as described above with 20 mM N-acetylcyateine for 20 min. and then incubated with IL 1 for an additional 1 or 12 hours. The RNA was extracted and examined by Northern blot analysis using cDNA probes for c-fos and collagenase.

PLA2 = test: 3H-arachidonic acid release by chondrocytes (PLA2 activity); type: cell-based, bovine; settings: stimulation, IL 1 10 ng/ml or PMA 100 mg/ml, 10 min
Procedure: as §3, with “Chondrocytes were washed in PBS and the total RNA extracted as previously described (Cruz. et al, 1991, Biochem. J. 277, 327-330). RNA samples were run on formaldehyde agarose gels and transferred to nylon membrane for northern analysis using cDNA probes for c-fos and c-jun.” left out

MDAY-D2 cells = test: Viability of MDAY-D2 cells with different vanadyl compounds; type: cell-based, mouse; settings: 0-50 μM, 48 hours; FIG. 8
Procedure: Three different forms of vanadyl compounds were examined for their effect on viability of cancer cell lines. MDAY-D2 cells were incubated in media containing 0-50 μM orthovanadate, vanadyl sulphate, or vanadyl hydroperoxide for 48 hours. The cells were harvested and the number of viable cells determined. […] Although there were slight differences in sensitivity, the overall cell death was similar.

mammary carcinogenesis = settings: dietary; cited from earlier work
MDAY-D2 [3] = test: Liver metastases of MDAY-D2 cells in mice (histology), Example 8; type: in vivo
Description: (§4) In order to examine the ability of vanadyl compounds to reduce tumor formation, growth and metastases, a specific animal model which allows investigation of all of these processes in the same animal was chosen. This model involves the injection of a metastatic haematopoietic cell line, MDAY-D2, into mice subcutaneously. These cells form a tumor at the site of injection and its size can be easily determined. In addition, these cells metastasize to the liver and metastases can be detected histologically after day 17 to 19. This model provides a very sensitive and reproducible approach to investigate the effect of vanadyl compounds on tumor growth and metastases.
Livers were removed from animals treated as described above and prepared for histological examination. FIG. 16 compares liver sections from untreated (C), orthovanadate (VO)(500 μg/day) and vanadyl sulphate (VS)(500 μg/day) treated animals. Nodules are identified with an arrow.

MDAY-D2 [4] = test: MDAY-D2 tumor growth in mice, three vanadyl compounds, Example 6B; type: in vivo; settings: for effect on tumor growth, in words: 10 mg/ml s.c. daily; for animals that died: 10 mg/ml, 50 μl s.c. daily for 16 days, groups of five mice
Description: as §4
In a separate experiment using the same animal model, the effect of orthovanadate, vanadyl sulphate and vanadyl hydroperoxide administration on tumor growth in vivo was examined. On Day 1, 20 mice were injected with 2×10^5 MDAY-D2 cell subcutaneously. The mice were divided into four groups of five mice. At day 5, the animals were injected subcutaneously with 50 μl of water alone or containing 10 mg/ml of orthovanadate, 10 mg/ml of vanadyl sulphate, or 10 mg/ml of vanadyl hydroperoxide. This treatment was continued daily for 16 days. At day 21, the mice were sacrificed and the tumors dissected and weighed.

cells = test: Combined effect of H2O2 and orthovanadate on cell toxicity; type: cell-based; settings: 1 mM H2O2, 24 hours; FIG. 9
Procedure: If the orthovanadate induced formation of hydroxyl radicals is responsible for cell toxicity, then adding exogenous H2 O2 should enhance the effects of orthovanadate. Accordingly, cells were incubated in media alone or containing 1 mM H2 O2 or 10 μM orthovanadate or both for 24 hours. The cells were harvested and cell viability determined.

MDAY-D2 [5] = test: MDAY-D2 tumor growth in mice, combination therapy, Example 7; type: in vivo
Procedure: Twenty mice were injected subcutaneously with 2×10^5 cells on Day 1. At day 4, the mice were divided into four groups of five mice. Group one (control) received subcutaneous injections of 50 μl of water. Group two received daily intraperitoneal injections of 50 μl of 250 mM N-acetylcysteine. Group three received daily subcutaneous injections of 50 μl of 10 mg/ml of orthovanadate. Group four received daily intraperitoneal injections of 50 μl of […] N-acetylcysteine and 20 minutes later received 50 μl of subcutaneous injection of 50 μl of 10 mg/ml of orthovanadate. On day 10 the treatment was stopped. The animals were sacrificed on Day 13 and analyzed for tumor growth.

collagenase [6] = test: Northern blot analysis of collagenase mRNA expression in chondrocytes; type: cell-based, bovine
Description: as §1, §2
Cells were also incubated as described above with 20 mM N-acetylcyateine for 20 min. and then incubated with IL 1 for an additional 1 or 12 hours. The RNA was extracted and examined by Northern blot analysis using cDNA probes for c-fos and collagenase. N-acetylcysteine which is converted to GSH intracellularly was also found to reduce the levels of fos and collagenase expression in response to IL 1 (FIG. 5). Presumably the higher intracellular levels of GSH reduced H2 O2 and superoxide levels and suppressed the induction of fos and collagenase expression.

superoxides and H2O2 = test: Levels of superoxides and H2O2 in cells (conclusion of Example 1); type: cell-based, bovine; settings: conclusion from results
Procedure: as §3, with “Chondrocytes were washed in PBS and the total RNA extracted as previously described (Cruz. et al, 1991, Biochem. J. 277, 327-330). RNA samples were run on formaldehyde agarose gels and transferred to nylon membrane for northern analysis using cDNA probes for c-fos and c-jun.” left out

[7] = test system: Chondrocytes (reactive oxygen intermediates; NADPH oxidase); test: FACS analysis of reactive oxygen intermediates/superoxide production in chondrocytes (dihydroxyrhodamine); type: cell-based, bovine; settings: inhibition, FIG. 1
Procedure: Chondrocytes (i.e. bovine chondrocytes plated as described in Kandel R. A. et al. Biochim. Biophys. Acta. 1053, 130-134, 1990) were incubated with dihydroxyrhodamine for 5 min (DHR) or for 4 hours in the absence (-IL 1 ) or presence of IL 1 (+IL 1), or in the presence of both IL 1 and the NADPH inhibitor, diphenyl iodonium, (+IL 1, +DPI).

[8] = 20 mM N-acetylcysteine for 20 min, FIG. 5

Compound: COc1cccc2c1C(=O)c1c(O)c3c(c(O)c1C2=O)C[C@@](O)(C(=O)CO)C[C@@H]3O[C@H]1C[C@H](N)[C@H](O)[C@H](C)O1 [doxorubicin]
- killing of drug resistant cell lines by conventional chemotherapeutic agents [1]: not killed

Compound: vitamin E
- anticancer activity (carcinogenesis): reported to have anticancer activity

Compound: COc1cc2c(c(OC)c1OC)-c1ccc(OC)c(=O)cc1[C@@H](NC(C)=O)CC2 [colchicine]
- killing of drug resistant cell lines by conventional chemotherapeutic agents [1]: not killed

Compound: CC1=C(/C=C/C(C)=C/C=C/C(C)=C/C=C/C=C(C)/C=C/C=C(C)/C=C/C2=C(C)CCCC2(C)C)C(C)(C)CCC1 [β-carotene]
- anticancer activity (carcinogenesis): reported to have anticancer activity

Compound: N[C@@H](CCC(=O)N[C@@H](CS)C(=O)NCC(=O)O)C(=O)O [glutathione]
- anticancer activity (carcinogenesis): reported to have anticancer activity

Compound: CCCCCCCCCCCCCC(=O)OC1C(C)C2(O)C(C=C(CO)CC3(O)C(=O)C(C)=CC32)C2C(C)(C)C12OC(C)=O (centres unmarked) [PMA, reference compound]
- expression of c-jun (jun): stimulated
- production of PGE2 (PGE2): induced
- production of collagenase (collagenase [2]): induced
- expression of c-fos (fos): stimulated
- release of 3H-AA (PLA2): induced

Compound: O=S(=O)([O-])[O-].[O]=[V+2] [vanadyl sulphate]
- effectiveness in killing MDAY-D2 cells (MDAY-D2 cells): equally effective
- inhibition of chemically induced mammary carcinogenesis (mammary carcinogenesis): inhibit
- levels of metastases in liver (MDAY-D2 [3]; 500 μg/day, FIG. 16): did not have detectable levels of metastases
- effectiveness at preventing metastases (MDAY-D2 [3]; preliminary results, liver histology): effective at preventing metastases
- effect on tumor growth, in words (MDAY-D2 [4]): reduced tumors size in all of the animals; also recorded: less effective
- animals that died (MDAY-D2 [4]): One animal died

Compound: OO [H2 O2, hydrogen peroxide]
- stimulation of fos expression (fos; H2O2 for 30, 60 and 90 minutes, FIG. 3): stimulates
- cell toxicity of H2O2 alone (cells): small effect

Compound: O=C1O[C@H]([C@@H](O)CO)C(O)=C1O [vitamin C, ascorbic acid]
- anticancer activity (carcinogenesis): reported to have anticancer activity

Compound: CC[C@]1(O)C[C@@H]2CN(CCc3c([nH]c4ccccc34)[C@@](C(=O)OC)(c3cc4c(cc3OC)N(C)[C@H]3[C@@](O)(C(=O)OC)[C@H](OC(C)=O)[C@]5(CC)C=CCN6CC[C@]43[C@@H]65)C2)C1 [vinblastine]
- killing of drug resistant cell lines by conventional chemotherapeutic agents [1]: not killed

Compound: vanadyl hydroperoxide
- effectiveness in killing MDAY-D2 cells (MDAY-D2 cells): equally effective
- effect on tumor growth, in words (MDAY-D2 [4]): too toxic to evaluate its efficacy
- animals that died (MDAY-D2 [4]): all five died

Compound: CC(=O)N[C@@H](CS)C(=O)O [N-acetylcysteine]
- jun expression in response to factors such as IL 1 or arachidonic acid (jun): completely inhibit
- effect on slight toxic effects observed with orthovanadate alone (MDAY-D2 [5]; N-acetylcysteine co-administered): appeared to reduce the slight toxic effects
- tumor growth inhibition in vivo, in words (MDAY-D2 [5]; combination therapy): capable of reducing tumor growth to some extent
- levels of collagenase expression in response to IL 1 (collagenase [6]; [8]): reduce
- levels of fos expression in response to IL 1 (fos; [8]): reduce
- fos expression in response to factors such as IL 1 or arachidonic acid (fos): completely inhibit
- levels of superoxides and H2O2 in cells (superoxides and H2O2): indirectly reduce

Compound: c1ccc([I+]c2ccccc2)cc1 [diphenyl iodonium (DPI), diphenyl iodonium]
- jun expression in response to factors such as IL 1 or arachidonic acid (jun): completely inhibit
- constitutive and IL 1 induced reactive oxygen intermediates [7]: completely inhibits
- IL 1 induced and constitutive collagenase expression (collagenase [6]; Northern blot, FIG. 2): suppress
- IL 1 induction of fos (fos; Northern blot, FIG. 2): suppressed
- fos expression in response to factors such as IL 1 or arachidonic acid (fos): completely inhibit

Compound: CCCCC/C=C\C/C=C\C/C=C\C/C=C\CCCC(=O)O [AA, arachidonic acid]
- expression of c-jun (jun): stimulated
- expression of c-fos (fos): stimulated

Compound: Cc1c(C)c2c(c(C)c1O)CCC(C)(CCCC(C)CCCC(C)CCCC(C)C)O2 (stereo not drawn) [α-tocopherol]
- anticancer activity (carcinogenesis): reported to have anticancer activity
